Results published in US20230117034A1, “PYRAZOLOTRIAZINES” (Bayer Aktiengesellschaft, priority 2019, published 2023).

Experiments:
[1] = molecular target: T1, CDK9/CycT1 (Homo sapiens, UniProt P50750); assay: CDK9/CycT1 high ATP kinase assay (TR-FRET, 2 mM ATP); assay type: biochemical; conditions: 2 mM ATP (high ATP); median; read-out: CDK9/CyclinT1, 2 mM ATP (high ATP), IC50 (median)
T1 construct: Recombinant full-length His-tagged human CDK9 and CycT1; purchased Life Technologies PV4131; host or cells: insect cells
Summary of the method: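 Full-length His-tagged human CDK9/CycT1 (insect cell, ~0.5 μg/mL) preincubated 15 min at 22 °C with compound in Tris pH 8.0, MgCl2, DTT buffer before reaction with biotinylated peptide substrate at high ATP (2 mM).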

[2] = test system: MDA-MB-231, human breast cancer cells; assay: Proliferation assay MDA-MB-231 (crystal violet, 4 days); assay type: cell-based; conditions: Homo sapiens, MDA-MB-231, 96 h, MDA-MB-231 cells, median, read-out: Prolif-MDA MB-231, IC50-[mol/l] (median)
Summary of the method: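 CAL-120 or MDA-MB-231 cells grown 24 h, then exposed 4 days to compound (0.01–10 micromol/L, 0.1% DMSO). Crystal violet staining, absorbance at 595 nm, normalised to a zero-point plate (0%) and untreated cells (100%); IC50 by 4-parameter fit.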

T1 sequence (P50750 whole entry): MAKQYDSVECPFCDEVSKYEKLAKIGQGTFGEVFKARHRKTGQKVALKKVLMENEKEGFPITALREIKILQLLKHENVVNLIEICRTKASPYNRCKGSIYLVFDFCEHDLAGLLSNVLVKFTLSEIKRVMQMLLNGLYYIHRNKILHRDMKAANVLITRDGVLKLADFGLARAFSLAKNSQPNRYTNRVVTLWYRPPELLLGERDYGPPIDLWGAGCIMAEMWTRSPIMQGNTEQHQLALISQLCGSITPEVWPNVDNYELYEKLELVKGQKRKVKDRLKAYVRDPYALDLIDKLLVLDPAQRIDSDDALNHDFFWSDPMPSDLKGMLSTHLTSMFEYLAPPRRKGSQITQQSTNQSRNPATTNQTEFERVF
T1 sequence (O60563 whole entry partner): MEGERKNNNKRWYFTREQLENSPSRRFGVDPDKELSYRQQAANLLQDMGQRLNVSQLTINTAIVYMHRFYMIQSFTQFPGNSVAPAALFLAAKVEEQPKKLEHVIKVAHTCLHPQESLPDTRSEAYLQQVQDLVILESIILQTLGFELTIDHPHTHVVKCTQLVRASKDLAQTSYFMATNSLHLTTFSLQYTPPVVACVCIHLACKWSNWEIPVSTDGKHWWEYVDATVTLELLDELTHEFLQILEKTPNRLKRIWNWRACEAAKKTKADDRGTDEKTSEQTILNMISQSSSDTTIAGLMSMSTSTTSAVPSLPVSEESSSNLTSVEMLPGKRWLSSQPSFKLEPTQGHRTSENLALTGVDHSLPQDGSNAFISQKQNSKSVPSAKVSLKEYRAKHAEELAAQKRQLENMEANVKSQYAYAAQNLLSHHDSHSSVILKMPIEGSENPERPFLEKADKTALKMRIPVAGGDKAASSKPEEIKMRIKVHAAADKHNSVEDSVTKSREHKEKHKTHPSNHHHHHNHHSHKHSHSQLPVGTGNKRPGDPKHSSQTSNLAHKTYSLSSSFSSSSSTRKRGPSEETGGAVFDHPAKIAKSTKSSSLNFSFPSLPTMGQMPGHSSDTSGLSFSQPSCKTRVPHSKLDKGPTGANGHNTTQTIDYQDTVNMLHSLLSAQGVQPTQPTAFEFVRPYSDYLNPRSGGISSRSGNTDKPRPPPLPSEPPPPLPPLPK

SMILES	IC50 [1] [nM]	IC50 [2] [nM]
CC(C)COc1nc(NCc2nc3ccccc3[nH]2)n2ncc(Br)c2n1 [Example 409, N-[(1H-benzimidazol-2-yl)methyl]-8-bromo-2-(2-methylpropoxy)pyrazolo[1,5-a][1,3,5]triazin-4-amine]	> 20000	343
Cc1cnn2c(NCc3nc4ccccc4[nH]3)nc(N3CC4CCC(C3)N4)nc12 [Example 401, N-[(1H-benzimidazol-2-yl)methyl]-2-(3,8-diazabicyclo[3.2.1]octan-3-yl)-8-methylpyrazolo[1,5-a][1,3,5]triazin-4-amine]	> 20000	132
FC(F)Cc1cnn2c(NCc3nc4ccccc4[nH]3)nc(N3CCOCC3)nc12.O=C(O)C(F)(F)F [Example 444, trifluoroacetic acid N-[(1H-benzimidazol-2-yl)methyl]-8-(2,2-difluoroethyl)-2-(morpholin-4-yl)pyrazolo[1,5-a][1,3,5]triazin-4-amine]	> 20000	69.1
Cc1cnn2c(NCc3nc4c(F)c(F)ccc4[nH]3)nc(N3CC4CCC(C3)N4)nc12 [Example 400, 2-(3,8-diazabicyclo[3.2.1]octan-3-yl)-N-[(4,5-difluoro-1H-benzimidazol-2-yl)methyl]-8-methylpyrazolo[1,5-a][1,3,5]triazin-4-amine]	> 20000	20.3
CN1CCN(c2nc(NCc3nc4c(F)c(F)ccc4[nH]3)n3ncc(C4CC4(F)F)c3n2)CC1 (stereo not drawn) [Example 429, N-[(4,5-difluoro-1H-benzimidazol-2-yl)methyl]-8-(2,2-difluorocyclopropyl)-2-(4-methylpiperazin-1-yl)pyrazolo[1,5-a][1,3,5]triazin-4-amine]	> 20000	32.4
Cn1cc(-c2cnn3c(NCc4nc5cc(Cl)c(Cl)cc5[nH]4)nc(N4CCOCC4)nc23)cn1 [Example 419, N-[(5,6-dichloro-1H-benzimidazol-2-yl)methyl]-8-(1-methyl-1H-pyrazol-4-yl)-2-(morpholin-4-yl)pyrazolo[1,5-a][1,3,5]triazin-4-amine]	> 20000	228
NCCOCCOCCNc1nc(NCc2nc3ccccc3[nH]2)n2ncc(Br)c2n1 [Example 412, N2-{2-[2-(2-aminoethoxy)ethoxy]ethyl}-N4-[(1H-benzimidazol-2-yl)methyl]-8-bromopyrazolo[1,5-a][1,3,5]triazine-2,4-diamine]	> 20000	1910
COc1cccc2nc(CNc3nc(N4CCOCC4)nc4c(-c5ccnnc5)cnn34)[nH]c12.O=C(O)C(F)(F)F [Example 439, trifluoroacetic acid N-[(7-methoxy-1H-benzimidazol-2-yl)methyl]-2-(morpholin-4-yl)-8-(pyridazin-4-yl)pyrazolo[1,5-a][1,3,5]triazin-4-amine]	> 20000	180
FC(F)(F)c1cnn2c(NCc3nnc(-c4ccccc4)[nH]3)nc(N3CCOCC3)nc12 [Example 427, 2-(morpholin-4-yl)-N-[(5-phenyl-4H-1,2,4-triazol-3-yl)methyl]-8-(trifluoromethyl)pyrazolo[1,5-a][1,3,5]triazin-4-amine]	4230	113
Fc1ccc2[nH]c(CNc3nc(N4CCOCC4)nc4c(C(F)(F)F)cnn34)nc2c1F [Example 426, N-[(4,5-difluoro-1H-benzimidazol-2-yl)methyl]-2-(morpholin-4-yl)-8-(trifluoromethyl)pyrazolo [1,5-a][1,3,5]triazin-4-amine]	12700	4.19
Clc1cc2nc(CNc3nc(N4CCOCC4)nc4c(-c5cscn5)cnn34)[nH]c2cc1Cl [Example 424, N-[(5,6-dichloro-1H-benzimidazol-2-yl)methyl]-2-(morpholin-4-yl)-8-(1,3-thiazol-4-yl)pyrazolo [1,5-a][1,3,5]triazin-4-amine]	> 20000	73.7
Fc1ccc2[nH]c(CNc3nc(N4CCOCC4)nc4c(-c5nccs5)cnn34)nc2c1F [Example 413, N-[(4,5-difluoro-1H-benzimidazol-2-yl)methyl]-2-(morpholin-4-yl)-8-(1,3-thiazol-2-yl)pyrazolo [1,5-a][1,3,5]triazin-4-amine]	> 20000	298
O=C(O)C(F)(F)F.c1ccc2[nH]c(CNc3nc(N4CCOCC4)nc4c(-c5ccnnc5)cnn34)nc2c1 [Example 438, trifluoroacetic acid N-[(1H-benzimidazol-2-yl)methyl]-2-(morpholin-4-yl)-8-(pyridazin-4-yl)pyrazolo[1,5-a][1,3,5]triazin-4-amine]	> 20000	283
CCc1cnn2c(NCc3nc4c(F)c(F)ccc4[nH]3)nc(N3CCOCC3)nc12 [Example 432, N-[(4,5-difluoro-1H-benzimidazol-2-yl)methyl]-8-ethyl-2-(morpholin-4-yl)pyrazolo[1,5-a][1,3,5]triazin-4-amine]	15700	8.53
Clc1cc2nc(CNc3nc(N4CCOCC4)nc4c(-c5ccnnc5)cnn34)[nH]c2cc1Cl.O=C(O)C(F)(F)F [Example 440, trifluoroacetic acid N-[(5,6-dichloro-1H-benzimidazol-2-yl)methyl]-2-(morpholin-4-yl)-8-(pyridazin-4-yl)pyrazolo[1,5-a][1,3,5]triazin-4-amine]	> 20000	21.4
Cn1cc(-c2cnn3c(NCc4nc5c(F)c(F)ccc5[nH]4)nc(N4CCOCC4)nc23)cn1 [Example 418, N-[(4,5-difluoro-1H-benzimidazol-2-yl)methyl]-8-(1-methyl-1H-pyrazol-4-yl)-2-(morpholin-4-yl)pyrazolo[1,5-a][1,3,5]triazin-4-amine]	> 20000	246
Fc1ccc2[nH]c(CNc3nc(N4CCOCC4)nc4c(CC(F)F)cnn34)nc2c1F.O=C(O)C(F)(F)F [Example 425, trifluoroacetic acid N-[(4,5-difluoro-1H-benzimidazol-2-yl)methyl]-8-(2,2-difluoroethyl)-2-(morpholin-4-yl)pyrazolo[1,5-a][1,3,5]triazin-4-amine]	> 20000	8.76
COc1ccccc1-c1nnc(CNc2nc(N3CCN(C)CC3)nc3c(C4CC4(F)F)cnn23)[nH]1 (stereo not drawn) [Example 430, 8-(2,2-difluorocyclopropyl)-N-{[5-(2-methoxyphenyl)-4H-1,2,4-triazol-3-yl]methyl}-2-(4-methylpiperazin-1-yl)pyrazolo[1,5-a][1,3,5]triazin-4-amine]	> 20000	81.5
COc1cccc2nc(CNc3nc(N4CCN(C)CC4)nc4c(-c5nccs5)cnn34)[nH]c12 [Example 416, N-[(7-methoxy-1H-benzimidazol-2-yl)methyl]-2-(4-methylpiperazin-1-yl)-8-(1,3-thiazol-2-yl)pyrazolo[1,5-a][1,3,5]triazin-4-amine]	> 20000	986
Fc1ccc2[nH]c(CNc3nc(N4CCOCC4)nc4c(-c5ccnnc5)cnn34)nc2c1F [Example 417, N-[(4,5-difluoro-1H-benzimidazol-2-yl)methyl]-2-(morpholin-4-yl)-8-(pyridazin-4-yl)pyrazolo[1,5-a][1,3,5]triazin-4-amine]	> 1630	83.1
Fc1cccc2[nH]c(CNc3nc(N4CCN5CCC4CC5)nc4c(C(F)(F)F)cnn34)nc12 [Example 410, 2-(1,4-diazabicyclo[3.2.2]nonan-4-yl)-N-[(4-fluoro-1H-benzimidazol-2-yl)methyl]-8-(trifluoromethyl)pyrazolo[1,5-a][1,3,5]triazin-4-amine]	> 20000	8.27
CCc1cnn2c(NCc3nc4c(OC)cccc4[nH]3)nc(N3CCOCC3)nc12 [Example 433, 8-ethyl-N-[(4-methoxy-1H-benzimidazol-2-yl)methyl]-2-(morpholin-4-yl)pyrazolo[1,5-a][1,3,5]triazin-4-amine]	> 20000	40.3
CC(C)(O)COc1nc(NCc2nc3ccccc3[nH]2)n2ncc(Br)c2n1 [Example 398, 1-[(4-{[(1H-benzimidazol-2-yl)methyl]amino}-8-bromopyrazolo[1,5-a][1,3,5]triazin-2-yl)oxy]-2-methylpropan-2-ol]	> 20000	59.2
CCc1cnn2c(NCc3nc4ccccc4[nH]3)nc(N3CCN(C)CC3)nc12 [Example 434, N-[(1H-benzimidazol-2-yl)methyl]-8-ethyl-2-(4-methylpiperazin-1-yl)pyrazolo[1,5-a][1,3,5] triazin-4-amine]	> 20000	44.7
Cc1cnn2c(NCc3nc4c(F)c(F)ccc4[nH]3)nc(N3CCOCC3)nc12 [Example 392, N-[(4,5-difluoro-1H-benzimidazol-2-yl)methyl]-8-methyl-2-(morpholin-4-yl)pyrazolo[1,5-a][1,3,5]triazin-4-amine]	> 20000	11.1
CCNc1nc(NCc2ncc(-c3ccccc3)[nH]2)n2ncc(C(C)C)c2n1 [Example 34, N^2-ethyl-N^4-[(5-phenyl-1H-imidazol-2-yl)methyl]-8-(propan-2-yl)pyrazolo[1,5-a][1,3,5]triazine-2,4-diamine]	> 20000	48.6
Fc1ccc2[nH]c(CNc3nc(N4CCN5CCC4CC5)nc4c(C(F)(F)F)cnn34)nc2c1F [Example 407, 2-(1,4-diazabicyclo[3.2.2]nonan-4-yl)-N-[(4,5-difluoro-1H-benzimidazol-2-yl)methyl]-8-(trifluoromethyl)pyrazolo[1,5-a][1,3,5]triazin-4-amine]	> 20000	2.28
